Test results published in ChEMBL document CHEMBL5649169 (ChemMedChem, 2018).

Columns and labels:
[1] = biological target: Anamorsin (Homo sapiens) (UniProt Q6FI81)
[2] = biological target: Signal recognition particle subunit SRP68 (Homo sapiens) (UniProt Q9UHB9)
[3] = biological target: Serine/threonine-protein kinase PAK 4 (Homo sapiens) (UniProt O96013)
[4] = biological target: Katanin p60 ATPase-containing subunit A-like 2 (Homo sapiens) (UniProt Q8IYT4)
[5] = biological target: F-actin-capping protein subunit beta (Homo sapiens) (UniProt P47756)
[6] = biological target: Large ribosomal subunit protein eL31 (Homo sapiens) (UniProt P62899)
[7] = biological target: Transcription factor A, mitochondrial (Homo sapiens) (UniProt Q00059)
[8] = biological target: Serine/threonine-protein kinase ULK1 (Homo sapiens) (UniProt O75385)
[9] = biological target: Serine/threonine-protein kinase A-Raf (Homo sapiens) (UniProt P10398)
Sequence of Serine/threonine-protein kinase A-Raf (Homo sapiens) (P10398 whole entry): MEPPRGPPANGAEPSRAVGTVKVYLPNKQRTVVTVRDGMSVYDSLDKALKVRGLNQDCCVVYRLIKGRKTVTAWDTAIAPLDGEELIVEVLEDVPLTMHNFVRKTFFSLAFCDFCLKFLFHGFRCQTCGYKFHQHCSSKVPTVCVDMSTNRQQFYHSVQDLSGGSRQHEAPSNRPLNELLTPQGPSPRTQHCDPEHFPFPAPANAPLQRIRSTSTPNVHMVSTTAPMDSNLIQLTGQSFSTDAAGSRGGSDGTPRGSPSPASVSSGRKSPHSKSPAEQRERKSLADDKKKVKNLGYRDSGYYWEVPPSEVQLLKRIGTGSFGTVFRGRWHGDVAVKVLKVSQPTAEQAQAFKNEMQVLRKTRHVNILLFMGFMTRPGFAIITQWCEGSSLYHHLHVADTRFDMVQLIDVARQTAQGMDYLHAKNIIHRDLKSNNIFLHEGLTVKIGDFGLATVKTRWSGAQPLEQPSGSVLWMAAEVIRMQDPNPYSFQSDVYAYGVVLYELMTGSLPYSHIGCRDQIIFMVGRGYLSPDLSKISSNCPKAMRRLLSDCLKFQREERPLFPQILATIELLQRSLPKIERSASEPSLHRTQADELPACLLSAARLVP

[10] = biological target: Rab GDP dissociation inhibitor beta (Homo sapiens) (UniProt P50395)
[11] = biological target: Transmembrane protein 161A (Homo sapiens) (UniProt Q9NX61)
[12] = biological target: Small ribosomal subunit protein mS27 (Homo sapiens) (UniProt Q92552)
[13] = biological target: Tetratricopeptide repeat protein 14 (Homo sapiens) (UniProt Q96N46)
Sequence of Tetratricopeptide repeat protein 14 (Homo sapiens) (Q96N46 whole entry): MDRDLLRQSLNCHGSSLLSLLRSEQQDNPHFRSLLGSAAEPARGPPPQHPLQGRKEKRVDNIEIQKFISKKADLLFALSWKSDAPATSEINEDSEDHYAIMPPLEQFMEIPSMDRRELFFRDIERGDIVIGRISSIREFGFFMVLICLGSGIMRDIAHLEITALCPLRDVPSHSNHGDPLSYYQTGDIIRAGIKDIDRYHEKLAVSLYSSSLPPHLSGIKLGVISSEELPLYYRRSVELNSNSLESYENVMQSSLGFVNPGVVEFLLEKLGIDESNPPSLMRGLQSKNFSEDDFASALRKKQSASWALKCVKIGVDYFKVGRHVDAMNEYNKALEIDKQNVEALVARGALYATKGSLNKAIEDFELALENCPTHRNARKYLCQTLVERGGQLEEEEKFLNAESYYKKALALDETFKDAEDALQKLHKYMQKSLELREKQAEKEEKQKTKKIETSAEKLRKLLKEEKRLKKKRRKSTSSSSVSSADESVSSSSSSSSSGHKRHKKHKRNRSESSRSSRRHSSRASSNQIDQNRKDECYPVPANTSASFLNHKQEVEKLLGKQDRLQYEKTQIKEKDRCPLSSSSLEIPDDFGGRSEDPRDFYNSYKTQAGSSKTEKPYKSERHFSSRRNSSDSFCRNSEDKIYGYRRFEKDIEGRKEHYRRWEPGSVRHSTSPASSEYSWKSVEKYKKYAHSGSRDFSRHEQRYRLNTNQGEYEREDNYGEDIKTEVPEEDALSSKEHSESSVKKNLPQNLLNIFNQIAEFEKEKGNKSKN

[14] = biological target: Eukaryotic translation initiation factor 3 subunit I (Homo sapiens) (UniProt Q13347)
[15] = biological target: T-complex protein 1 subunit beta (Homo sapiens) (UniProt P78371)
[16] = biological target: Small ribosomal subunit protein eS17 (Homo sapiens) (UniProt P08708)
[17] = biological target: Triosephosphate isomerase (Homo sapiens) (UniProt P60174)
Sequence of Triosephosphate isomerase (Homo sapiens) (P60174 whole entry): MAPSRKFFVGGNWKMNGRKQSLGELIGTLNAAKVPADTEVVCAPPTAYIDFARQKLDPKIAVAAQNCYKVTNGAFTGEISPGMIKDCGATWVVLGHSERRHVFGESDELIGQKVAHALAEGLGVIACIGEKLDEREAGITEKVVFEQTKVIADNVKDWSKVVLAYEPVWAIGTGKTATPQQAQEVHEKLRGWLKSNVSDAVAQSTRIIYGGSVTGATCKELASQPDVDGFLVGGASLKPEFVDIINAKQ

[18] = biological target: Heterogeneous nuclear ribonucleoprotein Q (Homo sapiens) (UniProt O60506)
[19] = biological target: Cytochrome c oxidase subunit 6C (Homo sapiens) (UniProt P09669)
Sequence of Cytochrome c oxidase subunit 6C (Homo sapiens) (P09669 whole entry): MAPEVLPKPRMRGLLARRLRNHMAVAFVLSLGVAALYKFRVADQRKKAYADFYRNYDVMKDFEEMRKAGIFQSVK

[20] = biological target: DNA replication licensing factor MCM5 (Homo sapiens) (UniProt P33992)
[21] = biological target: Citron Rho-interacting kinase (Homo sapiens) (UniProt O14578)
[22] = biological target: Succinate dehydrogenase [ubiquinone] iron-sulfur subunit, mitochondrial (Homo sapiens) (UniProt P21912)
[23] = biological target: Serine/arginine-rich splicing factor 3 (Homo sapiens) (UniProt P84103)
[24] = biological target: ATP synthase peripheral stalk subunit d, mitochondrial (Homo sapiens) (UniProt O75947)
Sequence of ATP synthase peripheral stalk subunit d, mitochondrial (Homo sapiens) (O75947 whole entry): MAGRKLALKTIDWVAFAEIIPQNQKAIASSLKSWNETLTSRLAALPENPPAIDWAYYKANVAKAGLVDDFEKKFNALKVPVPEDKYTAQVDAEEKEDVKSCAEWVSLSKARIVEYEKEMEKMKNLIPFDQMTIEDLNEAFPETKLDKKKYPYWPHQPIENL

[25] = organism: Homo sapiens
[26] = biological target: ADP/ATP translocase 1 (Homo sapiens) (UniProt P12235)
[27] = biological target: Neutral amino acid transporter B(0) (Homo sapiens) (UniProt Q15758)
[28] = biological target: Atlastin-3 (Homo sapiens) (UniProt Q6DD88)
[29] = biological target: Nucleolar complex protein 2 homolog (Homo sapiens) (UniProt Q9Y3T9)
[30] = biological target: Tyrosine-protein kinase JAK1 (Homo sapiens) (UniProt P23458)
[31] = biological target: Eukaryotic translation elongation factor 1 epsilon-1 (Homo sapiens) (UniProt O43324)
[32] = biological target: Histone H1.5 (Homo sapiens) (UniProt P16401)
Sequence of Histone H1.5 (Homo sapiens) (P16401 whole entry): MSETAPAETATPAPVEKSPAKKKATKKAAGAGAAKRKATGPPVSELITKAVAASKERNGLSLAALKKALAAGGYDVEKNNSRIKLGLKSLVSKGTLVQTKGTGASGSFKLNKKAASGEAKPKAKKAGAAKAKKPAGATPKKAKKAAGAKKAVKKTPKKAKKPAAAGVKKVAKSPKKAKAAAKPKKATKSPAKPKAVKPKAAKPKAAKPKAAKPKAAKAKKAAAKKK

[33] = biological target: Tyrosine-protein kinase Yes (Homo sapiens) (UniProt P07947)
[34] = biological target: Bifunctional purine biosynthesis protein ATIC (Homo sapiens) (UniProt P31939)
[35] = biological target: Large ribosomal subunit protein uL23 (Homo sapiens) (UniProt P62750)
[36] = biological target: Ubiquitin thioesterase OTUB1 (Homo sapiens) (UniProt Q96FW1)
[37] = biological target: Glutamine--tRNA ligase (Homo sapiens) (UniProt P47897)
[38] = biological target: Coatomer subunit alpha (Homo sapiens) (UniProt P53621)
[39] = biological target: Iron-sulfur clusters transporter ABCB7, mitochondrial (Homo sapiens) (UniProt O75027)
Sequence of Iron-sulfur clusters transporter ABCB7, mitochondrial (Homo sapiens) (O75027 whole entry): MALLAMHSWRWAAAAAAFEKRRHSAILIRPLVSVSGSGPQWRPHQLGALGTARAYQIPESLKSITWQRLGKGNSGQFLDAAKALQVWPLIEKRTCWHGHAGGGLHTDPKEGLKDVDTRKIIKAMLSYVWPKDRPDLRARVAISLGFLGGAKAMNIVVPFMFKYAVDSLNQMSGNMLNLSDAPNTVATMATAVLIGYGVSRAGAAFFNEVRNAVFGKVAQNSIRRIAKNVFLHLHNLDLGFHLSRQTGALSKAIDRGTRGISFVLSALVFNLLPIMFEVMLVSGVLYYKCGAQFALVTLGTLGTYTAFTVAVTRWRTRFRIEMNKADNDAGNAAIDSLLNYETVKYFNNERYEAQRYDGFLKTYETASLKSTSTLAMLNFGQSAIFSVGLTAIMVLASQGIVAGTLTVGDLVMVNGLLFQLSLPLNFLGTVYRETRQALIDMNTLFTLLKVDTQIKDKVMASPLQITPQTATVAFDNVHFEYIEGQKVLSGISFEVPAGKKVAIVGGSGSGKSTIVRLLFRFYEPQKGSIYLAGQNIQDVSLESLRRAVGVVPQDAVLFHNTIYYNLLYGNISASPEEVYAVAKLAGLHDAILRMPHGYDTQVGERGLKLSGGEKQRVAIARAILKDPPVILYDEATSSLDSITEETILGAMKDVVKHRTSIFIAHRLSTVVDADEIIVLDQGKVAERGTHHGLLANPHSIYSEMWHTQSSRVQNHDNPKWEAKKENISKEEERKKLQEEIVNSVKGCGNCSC

[40] = biological target: Eukaryotic translation initiation factor 4 gamma 1 (Homo sapiens) (UniProt Q04637)
[41] = biological target: Tubulin alpha-1B chain (Homo sapiens) (UniProt P68363)
[42] = biological target: High mobility group protein B1 (Homo sapiens) (UniProt P09429)
[43] = biological target: Nucleosome assembly protein 1-like 1 (Homo sapiens) (UniProt P55209)
Sequence of Nucleosome assembly protein 1-like 1 (Homo sapiens) (P55209 whole entry): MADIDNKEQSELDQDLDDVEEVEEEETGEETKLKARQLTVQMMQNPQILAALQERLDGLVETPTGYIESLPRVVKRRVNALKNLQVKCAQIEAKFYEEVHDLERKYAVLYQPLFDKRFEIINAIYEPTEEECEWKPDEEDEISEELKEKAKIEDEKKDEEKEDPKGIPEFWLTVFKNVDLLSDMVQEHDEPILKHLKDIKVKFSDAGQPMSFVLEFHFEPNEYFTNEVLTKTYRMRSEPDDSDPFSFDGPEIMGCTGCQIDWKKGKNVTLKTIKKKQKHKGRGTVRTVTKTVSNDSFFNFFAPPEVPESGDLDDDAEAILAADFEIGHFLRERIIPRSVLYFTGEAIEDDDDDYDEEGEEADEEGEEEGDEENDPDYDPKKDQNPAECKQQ

[44] = biological target: TGF-beta receptor type-1 (Homo sapiens) (UniProt P36897)
Sequence of TGF-beta receptor type-1 (Homo sapiens) (P36897 whole entry): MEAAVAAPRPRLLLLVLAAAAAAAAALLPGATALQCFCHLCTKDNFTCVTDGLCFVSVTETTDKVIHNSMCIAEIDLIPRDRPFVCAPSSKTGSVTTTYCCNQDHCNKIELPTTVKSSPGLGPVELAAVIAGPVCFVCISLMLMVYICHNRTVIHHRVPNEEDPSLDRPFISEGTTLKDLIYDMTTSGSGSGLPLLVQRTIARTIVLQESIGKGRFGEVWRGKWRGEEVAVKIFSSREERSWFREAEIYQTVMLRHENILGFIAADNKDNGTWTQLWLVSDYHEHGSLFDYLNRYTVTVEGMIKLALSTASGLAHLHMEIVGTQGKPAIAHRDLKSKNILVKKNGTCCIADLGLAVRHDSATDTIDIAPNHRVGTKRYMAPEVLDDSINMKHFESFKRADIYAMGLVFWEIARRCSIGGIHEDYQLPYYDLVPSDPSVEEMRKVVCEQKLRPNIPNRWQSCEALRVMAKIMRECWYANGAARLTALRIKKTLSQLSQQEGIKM

[45] = biological target: Epidermal growth factor receptor (Homo sapiens) (UniProt P00533)
[46] = biological target: Inhibitor of nuclear factor kappa-B kinase subunit epsilon (Homo sapiens) (UniProt Q14164)
[47] = biological target: Small ribosomal subunit protein uS17m (Homo sapiens) (UniProt Q9Y2R5)
Note: assay method not described here.

Sequence of Signal recognition particle subunit SRP68 (Homo sapiens) (Q9UHB9 whole entry): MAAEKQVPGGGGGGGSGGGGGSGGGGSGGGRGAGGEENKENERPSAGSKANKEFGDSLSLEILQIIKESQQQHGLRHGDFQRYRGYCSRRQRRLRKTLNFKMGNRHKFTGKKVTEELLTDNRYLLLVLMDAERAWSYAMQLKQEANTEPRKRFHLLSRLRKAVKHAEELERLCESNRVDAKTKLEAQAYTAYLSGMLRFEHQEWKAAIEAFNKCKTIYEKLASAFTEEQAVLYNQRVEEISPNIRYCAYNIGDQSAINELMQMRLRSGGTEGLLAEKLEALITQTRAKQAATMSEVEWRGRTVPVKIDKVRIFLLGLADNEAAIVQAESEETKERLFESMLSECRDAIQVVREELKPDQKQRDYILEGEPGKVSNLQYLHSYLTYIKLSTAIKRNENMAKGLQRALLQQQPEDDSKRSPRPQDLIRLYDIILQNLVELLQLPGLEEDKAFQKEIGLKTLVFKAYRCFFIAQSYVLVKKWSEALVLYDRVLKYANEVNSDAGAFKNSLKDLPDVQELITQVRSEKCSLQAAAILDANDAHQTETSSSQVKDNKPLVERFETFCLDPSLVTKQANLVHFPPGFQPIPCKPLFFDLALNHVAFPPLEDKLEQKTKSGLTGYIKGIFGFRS
Sequence of Serine/threonine-protein kinase PAK 4 (Homo sapiens) (O96013 whole entry, looked up): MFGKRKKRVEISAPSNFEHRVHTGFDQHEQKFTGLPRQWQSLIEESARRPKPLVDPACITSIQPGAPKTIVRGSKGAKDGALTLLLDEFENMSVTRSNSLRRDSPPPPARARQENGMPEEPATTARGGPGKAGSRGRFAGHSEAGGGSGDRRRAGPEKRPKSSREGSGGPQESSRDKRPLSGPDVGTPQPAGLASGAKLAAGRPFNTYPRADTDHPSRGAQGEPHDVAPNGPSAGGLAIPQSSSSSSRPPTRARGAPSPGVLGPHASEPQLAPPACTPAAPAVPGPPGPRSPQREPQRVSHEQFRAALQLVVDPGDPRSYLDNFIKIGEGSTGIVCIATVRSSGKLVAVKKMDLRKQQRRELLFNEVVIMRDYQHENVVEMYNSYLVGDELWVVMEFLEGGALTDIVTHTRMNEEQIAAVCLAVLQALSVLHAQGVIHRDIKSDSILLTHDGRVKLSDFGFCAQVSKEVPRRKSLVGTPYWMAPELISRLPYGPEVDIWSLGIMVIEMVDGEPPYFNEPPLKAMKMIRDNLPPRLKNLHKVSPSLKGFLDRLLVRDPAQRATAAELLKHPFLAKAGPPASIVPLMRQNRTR

Compound: Cc1ccc(C(=O)Nc2cccc(C(F)(F)F)c2)cc1Nc1nc(-c2cccnc2)nc2c1cnn2C
- ED50 [1]: 0.0673 µM
- ED50 [2]: 4.09 µM
- ED50 [3]: 9.68 µM
- ED50 [4]: 0.0376 µM
- ED50 [5]: 8.9 µM
- ED50 [6]: 14.9 µM
- ED50 [7]: 17 µM
- ED50 [8]: 3.6 µM
- ED50 [9]: 13.1 µM
- ED50 [10]: 74.6 µM
- ED50 [11]: 0.044 µM
- ED50 [12]: 0.099 µM
- ED50 [13]: 1.9 µM
- ED50 [14]: 0.108 µM
- ED50 [15]: 0.0178 µM
- ED50 [16]: 21.8 µM
- ED50 [17]: 0.183 µM
- ED50 [18]: 0.0225 µM
- ED50 [19]: 16.2 µM
- ED50 [20]: 6.51 µM
- ED50 [21]: 0.771 µM
- ED50 [22]: 93.1 µM
- ED50 [23]: 1.06 µM
- ED50 [24]: 0.0727 µM
- ED50 [25]: 3.01 µM
- ED50 [26]: 1.74 µM
- ED50 [27]: 0.0263 µM
- ED50 [28]: 1.15 µM
- ED50 [29]: 0.637 µM
- ED50 [30]: 0.0138 µM
- ED50 [31]: 0.168 µM
- ED50 [32]: 4 µM
- ED50 [33]: 2.58 µM
- ED50 [34]: 3.39 µM
- ED50 [35]: 0.105 µM
- ED50 [36]: 3.76 µM
- ED50 [37]: 0.107 µM
- ED50 [38]: 0.127 µM
- ED50 [39]: 0.0622 µM
- ED50 [40]: 0.0238 µM
- ED50 [41]: 1.73 µM
- ED50 [42]: 3.01 µM
- ED50 [43]: 3.1 µM
- ED50 [44]: 0.000384 µM
- ED50 [45]: 0.114 µM
- ED50 [46]: 0.123 µM
- ED50 [47]: 0.421 µM

Compound: Cc1ccc(C(=O)Nc2cccc(C(F)(F)F)c2)cc1Nc1nc(-c2cccnc2)nc2nn(C)cc12
- ED50 [1]: 78.8 µM
- ED50 [2]: 0.0188 µM
- ED50 [3]: 25.1 µM
- ED50 [4]: 0.00647 µM
- ED50 [5]: 0.393 µM
- ED50 [6]: 0.00449 µM
- ED50 [7]: 0.0487 µM
- ED50 [8]: 0.55 µM
- ED50 [9]: 2.15 µM
- ED50 [10]: 0.514 µM
- ED50 [11]: 0.434 µM
- ED50 [12]: 0.835 µM
- ED50 [13]: 2.32 µM
- ED50 [14]: 35.5 µM
- ED50 [15]: 0.0532 µM
- ED50 [16]: 1.76 µM
- ED50 [17]: 0.0625 µM
- ED50 [18]: 0.296 µM
- ED50 [19]: 0.012 µM
- ED50 [20]: 1560 µM
- ED50 [21]: 15.6 µM
- ED50 [22]: 191 µM
- ED50 [23]: 0.0813 µM
- ED50 [24]: 0.0557 µM
- ED50 [25]: 0.135 µM
- ED50 [26]: 107 µM
- ED50 [27]: 0.032 µM
- ED50 [28]: 0.126 µM
- ED50 [29]: 627 µM
- ED50 [30]: 0.0748 µM
- ED50 [31]: 0.502 µM
- ED50 [32]: 1000 µM
- ED50 [33]: 3.56 µM
- ED50 [34]: 0.073 µM
- ED50 [35]: 0.0137 µM
- ED50 [36]: 0.655 µM
- ED50 [37]: 17 µM
- ED50 [38]: 0.652 µM
- ED50 [39]: 0.0289 µM
- ED50 [40]: 0.0778 µM
- ED50 [41]: 3.87 µM
- ED50 [42]: 0.0503 µM
- ED50 [43]: 147 µM
- ED50 [44]: 0.029 µM
- ED50 [45]: 0.213 µM
- ED50 [46]: 9.31 µM
- ED50 [47]: 0.0305 µM
